Laboratory results from the supplement of paper PMC10627819.

Legend:
Assay in all cases: fitness (endpoint OD595 vs no drug) (fraction); higher = more growth
B. subtilis 168 = tested on: B. subtilis 168
Method in brief: (§1)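 Volumes were 30 µl per well, or 55 µl for S. pneumoniae, in 384-well plates inoculated at OD595 0.01. Media were TSB, LB Lennox or CY at 37 °C, and OD595 was read every 30 min for 14 h with first-reading background subtraction. Fitness is the ratio of optical density at stationary-phase entry to the robust mean of no-drug controls. That ratio is capped at 1.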

S. aureus Newman = conditions: one replicate
Method in brief: as §1

S. pneumoniae D39V = tested on: S. pneumoniae D39V
Method in brief: as §1

SMILES: O=C(O)[C@H]1/C(=C/CO)O[C@@H]2CC(=O)N21 [Clavulanic acid] + Cc1ncc([N+](=O)[O-])n1CCO [Metronidazole]
- fitness (B. subtilis 168; first compound 1.5 µg/mL, partner 0.625 µg/mL): 0.93
- fitness (B. subtilis 168; first compound 1.5 µg/mL, partner 1.25 µg/mL): 0.97
- fitness (B. subtilis 168; first compound 1.5 µg/mL, partner 2.5 µg/mL): 0.976
- fitness (B. subtilis 168; first compound 3 µg/mL, partner 0.625 µg/mL): 0.909
- fitness (B. subtilis 168; first compound 3 µg/mL, partner 1.25 µg/mL): 0.89
- fitness (B. subtilis 168; first compound 3 µg/mL, partner 2.5 µg/mL): 0.886
- fitness (B. subtilis 168; first compound 6 µg/mL, partner 0.625 µg/mL): 0.794
- fitness (B. subtilis 168; first compound 6 µg/mL, partner 1.25 µg/mL): 0.762
- fitness (B. subtilis 168; first compound 6 µg/mL, partner 2.5 µg/mL): 0.772
- fitness (S. aureus Newman; first compound 0.03125 µg/mL, partner 0.625 µg/mL): 0.976
- fitness (S. aureus Newman; first compound 0.03125 µg/mL, partner 1.25 µg/mL): 0.96
- fitness (S. aureus Newman; first compound 0.03125 µg/mL, partner 2.5 µg/mL): 0.996
- fitness (S. aureus Newman; first compound 0.0625 µg/mL, partner 0.625 µg/mL): 0.94
- fitness (S. aureus Newman; first compound 0.0625 µg/mL, partner 1.25 µg/mL): ≥ 1
- fitness (S. aureus Newman; first compound 0.0625 µg/mL, partner 2.5 µg/mL): ≥ 1
- fitness (S. aureus Newman; first compound 0.125 µg/mL, partner 0.625 µg/mL): 0.85
- fitness (S. aureus Newman; first compound 0.125 µg/mL, partner 1.25 µg/mL): 0.891
- fitness (S. aureus Newman; first compound 0.125 µg/mL, partner 2.5 µg/mL): 0.852
- fitness (S. pneumoniae D39V; first compound 0.5 µg/mL, partner 1.073 µg/mL): 0.946
- fitness (S. pneumoniae D39V; first compound 0.5 µg/mL, partner 1.25 µg/mL): ≥ 1
- fitness (S. pneumoniae D39V; first compound 0.5 µg/mL, partner 2.145 µg/mL): 0.946
- fitness (S. pneumoniae D39V; first compound 0.5 µg/mL, partner 2.5 µg/mL): ≥ 1
- fitness (S. pneumoniae D39V; first compound 0.5 µg/mL, partner 4.29 µg/mL): 0.858
- fitness (S. pneumoniae D39V; first compound 0.5 µg/mL, partner 5 µg/mL): ≥ 1
- fitness (S. pneumoniae D39V; first compound 1 µg/mL, partner 1.073 µg/mL): 0.931
- fitness (S. pneumoniae D39V; first compound 1 µg/mL, partner 1.25 µg/mL): 0.957
- fitness (S. pneumoniae D39V; first compound 1 µg/mL, partner 2.145 µg/mL): 0.926
- fitness (S. pneumoniae D39V; first compound 1 µg/mL, partner 2.5 µg/mL): 0.971
- fitness (S. pneumoniae D39V; first compound 1 µg/mL, partner 4.29 µg/mL): 0.89
- fitness (S. pneumoniae D39V; first compound 1 µg/mL, partner 5 µg/mL): 0.959
- fitness (S. pneumoniae D39V; first compound 2 µg/mL, partner 1.073 µg/mL): 0.839
- fitness (S. pneumoniae D39V; first compound 2 µg/mL, partner 1.25 µg/mL): 0.801
- fitness (S. pneumoniae D39V; first compound 2 µg/mL, partner 2.145 µg/mL): 0.779
- fitness (S. pneumoniae D39V; first compound 2 µg/mL, partner 2.5 µg/mL): 0.828
- fitness (S. pneumoniae D39V; first compound 2 µg/mL, partner 4.29 µg/mL): 0.829
- fitness (S. pneumoniae D39V; first compound 2 µg/mL, partner 5 µg/mL): 0.805

SMILES: O=C(O)[C@H]1/C(=C/CO)O[C@@H]2CC(=O)N21 [Clavulanic acid] + Cc1onc(-c2ccccc2)c1C(=O)N[C@@H]1C(=O)N2[C@@H]1SC(C)(C)[C@@H]2C(=O)O [Oxacillin]
- fitness (B. subtilis 168; first compound 1.5 µg/mL, partner 0.002 µg/mL): 0.917
- fitness (B. subtilis 168; first compound 1.5 µg/mL, partner 0.004 µg/mL): 0.956
- fitness (B. subtilis 168; first compound 1.5 µg/mL, partner 0.0078 µg/mL, one replicate): 0.929
- fitness (B. subtilis 168; first compound 1.5 µg/mL, partner 0.008 µg/mL): 0.962
- fitness (B. subtilis 168; first compound 1.5 µg/mL, partner 0.0155 µg/mL, one replicate): 0.903
- fitness (B. subtilis 168; first compound 1.5 µg/mL, partner 0.031 µg/mL, one replicate): 0.926
- fitness (B. subtilis 168; first compound 1.5 µg/mL, partner 0.075 µg/mL, one replicate): 0.188
- fitness (B. subtilis 168; first compound 1.5 µg/mL, partner 0.15 µg/mL, one replicate): 0.058
- fitness (B. subtilis 168; first compound 1.5 µg/mL, partner 0.3 µg/mL, one replicate): 0.0448
- fitness (B. subtilis 168; first compound 3 µg/mL, partner 0.002 µg/mL): 0.901
- fitness (B. subtilis 168; first compound 3 µg/mL, partner 0.004 µg/mL): 0.899
- fitness (B. subtilis 168; first compound 3 µg/mL, partner 0.0078 µg/mL, one replicate): 0.958
- fitness (B. subtilis 168; first compound 3 µg/mL, partner 0.008 µg/mL): 0.866
- fitness (B. subtilis 168; first compound 3 µg/mL, partner 0.0155 µg/mL, one replicate): 0.937
- fitness (B. subtilis 168; first compound 3 µg/mL, partner 0.031 µg/mL, one replicate): 0.973
- fitness (B. subtilis 168; first compound 3 µg/mL, partner 0.075 µg/mL, one replicate): 0.0579
- fitness (B. subtilis 168; first compound 3 µg/mL, partner 0.15 µg/mL, one replicate): 0.0634
- fitness (B. subtilis 168; first compound 3 µg/mL, partner 0.3 µg/mL, one replicate): 0.0505
- fitness (B. subtilis 168; first compound 6 µg/mL, partner 0.002 µg/mL): 0.827
- fitness (B. subtilis 168; first compound 6 µg/mL, partner 0.004 µg/mL): 0.788
- fitness (B. subtilis 168; first compound 6 µg/mL, partner 0.0078 µg/mL, one replicate): 0.89
- fitness (B. subtilis 168; first compound 6 µg/mL, partner 0.008 µg/mL): 0.762
- fitness (B. subtilis 168; first compound 6 µg/mL, partner 0.0155 µg/mL, one replicate): 0.861
- fitness (B. subtilis 168; first compound 6 µg/mL, partner 0.031 µg/mL, one replicate): 0.806
- fitness (B. subtilis 168; first compound 6 µg/mL, partner 0.075 µg/mL, one replicate): 0.061
- fitness (B. subtilis 168; first compound 6 µg/mL, partner 0.15 µg/mL, one replicate): 0.058
- fitness (B. subtilis 168; first compound 6 µg/mL, partner 0.3 µg/mL, one replicate): 0.0518
- fitness (S. aureus Newman; first compound 0.03125 µg/mL, partner 0.0156 µg/mL): 0.861
- fitness (S. aureus Newman; first compound 0.03125 µg/mL, partner 0.0312 µg/mL): 0.801
- fitness (S. aureus Newman; first compound 0.03125 µg/mL, partner 0.0625 µg/mL): 0.628
- fitness (S. aureus Newman; first compound 0.0625 µg/mL, partner 0.0156 µg/mL): 0.785
- fitness (S. aureus Newman; first compound 0.0625 µg/mL, partner 0.0312 µg/mL): 0.784
- fitness (S. aureus Newman; first compound 0.0625 µg/mL, partner 0.0625 µg/mL): 0.564
- fitness (S. aureus Newman; first compound 0.125 µg/mL, partner 0.0156 µg/mL): 0.749
- fitness (S. aureus Newman; first compound 0.125 µg/mL, partner 0.0312 µg/mL): 0.697
- fitness (S. aureus Newman; first compound 0.125 µg/mL, partner 0.0625 µg/mL): 0.584
- fitness (S. pneumoniae D39V; first compound 0.5 µg/mL, partner 0.005 µg/mL): 0.994
- fitness (S. pneumoniae D39V; first compound 0.5 µg/mL, partner 0.01 µg/mL): 0.953
- fitness (S. pneumoniae D39V; first compound 0.5 µg/mL, partner 0.02 µg/mL): 0.943
- fitness (S. pneumoniae D39V; first compound 0.5 µg/mL, partner 0.04 µg/mL): 0.401
- fitness (S. pneumoniae D39V; first compound 1 µg/mL, partner 0.005 µg/mL): 0.952
- fitness (S. pneumoniae D39V; first compound 1 µg/mL, partner 0.01 µg/mL): 0.888
- fitness (S. pneumoniae D39V; first compound 1 µg/mL, partner 0.02 µg/mL): 0.837
- fitness (S. pneumoniae D39V; first compound 1 µg/mL, partner 0.04 µg/mL): 0.228
- fitness (S. pneumoniae D39V; first compound 2 µg/mL, partner 0.005 µg/mL): 0.846
- fitness (S. pneumoniae D39V; first compound 2 µg/mL, partner 0.01 µg/mL): 0.749
- fitness (S. pneumoniae D39V; first compound 2 µg/mL, partner 0.04 µg/mL): 0.0623
